Source: ChEMBL document CHEMBL3627608, “Crystal structures of human RIP2 kinase catalytic domain complexed with ATP-competitive inhibitors: Foundations for understanding inhibitor selectivity” (Bioorg Med Chem, 2015)

Tests used:
[1] = molecular target: T1, Mitogen-activated protein kinase 15 (Homo sapiens) (UniProt Q8TD08); test: Inhibition of ERK7 (unknown origin) at 10 uM after 120 mins P33 radiolabeled kinase activity assay
T1 sequence (whole entry): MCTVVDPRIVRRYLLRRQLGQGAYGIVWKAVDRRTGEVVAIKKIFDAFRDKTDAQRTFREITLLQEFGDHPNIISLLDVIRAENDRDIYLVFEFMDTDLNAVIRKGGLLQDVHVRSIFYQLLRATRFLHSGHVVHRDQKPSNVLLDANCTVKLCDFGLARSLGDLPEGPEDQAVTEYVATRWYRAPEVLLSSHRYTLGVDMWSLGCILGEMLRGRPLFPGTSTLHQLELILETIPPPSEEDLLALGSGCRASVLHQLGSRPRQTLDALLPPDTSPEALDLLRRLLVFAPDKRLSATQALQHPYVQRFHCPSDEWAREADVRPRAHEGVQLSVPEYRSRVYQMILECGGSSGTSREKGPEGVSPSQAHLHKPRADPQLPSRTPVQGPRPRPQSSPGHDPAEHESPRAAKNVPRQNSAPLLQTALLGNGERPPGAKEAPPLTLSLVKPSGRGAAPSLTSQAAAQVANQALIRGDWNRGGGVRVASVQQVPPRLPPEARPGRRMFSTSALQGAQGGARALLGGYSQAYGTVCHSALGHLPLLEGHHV

[2] = molecular target: Serine/threonine-protein kinase N3 (Homo sapiens) (UniProt Q6P5Z2); test: Inhibition of PKN3 (unknown origin) at 10 uM after 120 mins P33 radiolabeled kinase activity assay
[3] = molecular target: Serine/threonine-protein kinase PLK3 (Homo sapiens) (UniProt Q9H4B4); test: Inhibition of PLK3 (unknown origin) at 10 uM after 120 mins P33 radiolabeled kinase activity assay
[4] = molecular target: Tyrosine-protein kinase JAK2 (Homo sapiens) (UniProt O60674); test: Inhibition of JAK2 (unknown origin) at 10 uM after 120 mins P33 radiolabeled kinase activity assay
[5] = molecular target: Tyrosine-protein kinase Lyn (Homo sapiens) (UniProt P07948); test: Inhibition of LYN (unknown origin) at 10 uM after 120 mins P33 radiolabeled kinase activity assay
[6] = molecular target: Proto-oncogene tyrosine-protein kinase ROS (Homo sapiens) (UniProt P08922); test: Inhibition of ROS (unknown origin) at 10 uM after 120 mins P33 radiolabeled kinase activity assay
[7] = molecular target: SRSF protein kinase 2 (Homo sapiens) (UniProt P78362); test: Inhibition of SRPK2 (unknown origin) at 10 uM after 120 mins P33 radiolabeled kinase activity assay
[8] = molecular target: T2, Activin receptor type-1 (Homo sapiens) (UniProt Q04771); test: Inhibition of ALK2 (unknown origin) at 10 uM after 120 mins P33 radiolabeled kinase activity assay
T2 sequence (whole entry): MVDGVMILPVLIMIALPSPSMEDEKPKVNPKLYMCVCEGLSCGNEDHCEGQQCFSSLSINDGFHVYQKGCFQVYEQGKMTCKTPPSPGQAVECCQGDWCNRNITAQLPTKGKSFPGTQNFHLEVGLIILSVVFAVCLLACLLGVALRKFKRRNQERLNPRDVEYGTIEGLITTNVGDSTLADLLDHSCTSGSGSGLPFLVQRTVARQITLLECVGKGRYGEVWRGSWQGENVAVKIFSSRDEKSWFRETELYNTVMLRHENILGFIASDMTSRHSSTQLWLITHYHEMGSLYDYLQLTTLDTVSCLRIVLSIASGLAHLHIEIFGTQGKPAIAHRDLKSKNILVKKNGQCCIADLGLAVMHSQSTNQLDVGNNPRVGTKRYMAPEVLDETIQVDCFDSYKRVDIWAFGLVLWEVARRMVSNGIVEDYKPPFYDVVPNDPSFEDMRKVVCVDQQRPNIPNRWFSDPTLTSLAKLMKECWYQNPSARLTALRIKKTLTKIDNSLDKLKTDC

[9] = molecular target: Receptor-interacting serine/threonine-protein kinase 2 (Homo sapiens, UniProt O43353); test: Inhibition of full-length FLAG-6His-TEV tagged human RIP2 expressed in Sf9 cells by fluorescent polarization assay
[10] = molecular target: Calcium/calmodulin-dependent protein kinase type 1D (Homo sapiens) (UniProt Q8IU85); test: Inhibition of CAMK1delta (unknown origin) at 10 uM after 120 mins P33 radiolabeled kinase activity assay
Chain of Calcium/calmodulin-dependent protein kinase type 1D (Homo sapiens) (Q8IU85 whole entry, looked up): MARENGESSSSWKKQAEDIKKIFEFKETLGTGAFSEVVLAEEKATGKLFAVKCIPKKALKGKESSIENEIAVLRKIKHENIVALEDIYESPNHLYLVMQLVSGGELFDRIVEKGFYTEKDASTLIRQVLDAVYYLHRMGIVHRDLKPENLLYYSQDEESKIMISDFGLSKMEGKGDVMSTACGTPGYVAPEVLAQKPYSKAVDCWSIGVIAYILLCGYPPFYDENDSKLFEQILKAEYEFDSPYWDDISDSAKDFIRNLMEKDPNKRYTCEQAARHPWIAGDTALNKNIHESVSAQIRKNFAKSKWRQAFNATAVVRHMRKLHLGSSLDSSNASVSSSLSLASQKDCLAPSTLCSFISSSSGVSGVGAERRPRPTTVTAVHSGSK

Chain of Receptor-interacting serine/threonine-protein kinase 2 (O43353 whole entry): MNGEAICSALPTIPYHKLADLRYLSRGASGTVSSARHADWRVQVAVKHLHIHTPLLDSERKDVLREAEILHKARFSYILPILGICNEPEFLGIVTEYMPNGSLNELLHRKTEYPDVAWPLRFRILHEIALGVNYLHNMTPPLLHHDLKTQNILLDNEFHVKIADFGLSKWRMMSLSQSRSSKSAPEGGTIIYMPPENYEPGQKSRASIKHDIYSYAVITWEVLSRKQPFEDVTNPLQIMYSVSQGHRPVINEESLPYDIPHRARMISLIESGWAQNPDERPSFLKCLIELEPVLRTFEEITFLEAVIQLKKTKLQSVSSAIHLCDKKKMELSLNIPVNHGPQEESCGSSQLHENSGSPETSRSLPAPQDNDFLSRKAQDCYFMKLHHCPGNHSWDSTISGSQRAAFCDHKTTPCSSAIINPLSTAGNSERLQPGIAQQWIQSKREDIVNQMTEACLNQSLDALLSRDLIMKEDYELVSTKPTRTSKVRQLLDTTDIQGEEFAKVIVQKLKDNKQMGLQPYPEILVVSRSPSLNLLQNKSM
Chain of Serine/threonine-protein kinase N3 (Homo sapiens) (Q6P5Z2 whole entry, looked up): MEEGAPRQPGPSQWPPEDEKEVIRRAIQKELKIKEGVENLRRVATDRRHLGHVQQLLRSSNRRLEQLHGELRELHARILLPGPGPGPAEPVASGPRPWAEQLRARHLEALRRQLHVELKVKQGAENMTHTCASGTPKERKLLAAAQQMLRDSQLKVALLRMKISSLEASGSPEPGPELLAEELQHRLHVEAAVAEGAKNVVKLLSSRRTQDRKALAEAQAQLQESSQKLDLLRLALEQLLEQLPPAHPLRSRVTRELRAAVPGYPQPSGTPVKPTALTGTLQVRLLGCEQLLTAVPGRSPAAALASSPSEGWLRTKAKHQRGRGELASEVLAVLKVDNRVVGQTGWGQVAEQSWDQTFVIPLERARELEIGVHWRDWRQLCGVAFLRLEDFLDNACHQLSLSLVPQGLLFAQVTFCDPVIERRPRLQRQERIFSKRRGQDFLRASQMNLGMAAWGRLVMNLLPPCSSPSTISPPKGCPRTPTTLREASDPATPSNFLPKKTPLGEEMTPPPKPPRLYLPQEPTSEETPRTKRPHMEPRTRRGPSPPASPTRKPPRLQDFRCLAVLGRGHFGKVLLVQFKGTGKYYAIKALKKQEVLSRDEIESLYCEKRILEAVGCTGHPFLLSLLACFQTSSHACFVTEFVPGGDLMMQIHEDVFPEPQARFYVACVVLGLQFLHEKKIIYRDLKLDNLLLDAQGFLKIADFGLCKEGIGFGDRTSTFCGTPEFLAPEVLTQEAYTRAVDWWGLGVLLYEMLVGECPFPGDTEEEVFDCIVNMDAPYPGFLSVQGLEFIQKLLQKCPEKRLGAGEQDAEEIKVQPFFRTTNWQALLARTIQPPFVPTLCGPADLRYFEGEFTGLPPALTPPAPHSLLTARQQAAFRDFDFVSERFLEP
Chain of Serine/threonine-protein kinase PLK3 (Homo sapiens) (Q9H4B4 whole entry, looked up): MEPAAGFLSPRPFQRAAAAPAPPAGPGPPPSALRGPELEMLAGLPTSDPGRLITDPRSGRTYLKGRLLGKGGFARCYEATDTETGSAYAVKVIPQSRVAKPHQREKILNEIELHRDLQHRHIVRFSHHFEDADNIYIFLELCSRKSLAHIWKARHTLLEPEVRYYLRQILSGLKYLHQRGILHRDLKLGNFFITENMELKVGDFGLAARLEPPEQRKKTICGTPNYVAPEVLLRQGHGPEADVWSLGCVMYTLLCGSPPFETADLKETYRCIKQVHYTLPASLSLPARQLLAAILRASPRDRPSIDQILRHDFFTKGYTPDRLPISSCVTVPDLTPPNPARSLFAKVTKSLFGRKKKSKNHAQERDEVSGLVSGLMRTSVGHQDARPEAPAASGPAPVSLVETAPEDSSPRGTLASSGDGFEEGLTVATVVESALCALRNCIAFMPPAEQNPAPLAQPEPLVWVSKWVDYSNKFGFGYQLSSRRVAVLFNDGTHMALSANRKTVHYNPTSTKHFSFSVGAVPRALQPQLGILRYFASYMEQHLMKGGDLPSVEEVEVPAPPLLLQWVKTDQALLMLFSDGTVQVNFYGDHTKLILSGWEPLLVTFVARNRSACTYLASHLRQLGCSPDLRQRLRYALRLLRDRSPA
Chain of Proto-oncogene tyrosine-protein kinase ROS (Homo sapiens) (P08922 whole entry): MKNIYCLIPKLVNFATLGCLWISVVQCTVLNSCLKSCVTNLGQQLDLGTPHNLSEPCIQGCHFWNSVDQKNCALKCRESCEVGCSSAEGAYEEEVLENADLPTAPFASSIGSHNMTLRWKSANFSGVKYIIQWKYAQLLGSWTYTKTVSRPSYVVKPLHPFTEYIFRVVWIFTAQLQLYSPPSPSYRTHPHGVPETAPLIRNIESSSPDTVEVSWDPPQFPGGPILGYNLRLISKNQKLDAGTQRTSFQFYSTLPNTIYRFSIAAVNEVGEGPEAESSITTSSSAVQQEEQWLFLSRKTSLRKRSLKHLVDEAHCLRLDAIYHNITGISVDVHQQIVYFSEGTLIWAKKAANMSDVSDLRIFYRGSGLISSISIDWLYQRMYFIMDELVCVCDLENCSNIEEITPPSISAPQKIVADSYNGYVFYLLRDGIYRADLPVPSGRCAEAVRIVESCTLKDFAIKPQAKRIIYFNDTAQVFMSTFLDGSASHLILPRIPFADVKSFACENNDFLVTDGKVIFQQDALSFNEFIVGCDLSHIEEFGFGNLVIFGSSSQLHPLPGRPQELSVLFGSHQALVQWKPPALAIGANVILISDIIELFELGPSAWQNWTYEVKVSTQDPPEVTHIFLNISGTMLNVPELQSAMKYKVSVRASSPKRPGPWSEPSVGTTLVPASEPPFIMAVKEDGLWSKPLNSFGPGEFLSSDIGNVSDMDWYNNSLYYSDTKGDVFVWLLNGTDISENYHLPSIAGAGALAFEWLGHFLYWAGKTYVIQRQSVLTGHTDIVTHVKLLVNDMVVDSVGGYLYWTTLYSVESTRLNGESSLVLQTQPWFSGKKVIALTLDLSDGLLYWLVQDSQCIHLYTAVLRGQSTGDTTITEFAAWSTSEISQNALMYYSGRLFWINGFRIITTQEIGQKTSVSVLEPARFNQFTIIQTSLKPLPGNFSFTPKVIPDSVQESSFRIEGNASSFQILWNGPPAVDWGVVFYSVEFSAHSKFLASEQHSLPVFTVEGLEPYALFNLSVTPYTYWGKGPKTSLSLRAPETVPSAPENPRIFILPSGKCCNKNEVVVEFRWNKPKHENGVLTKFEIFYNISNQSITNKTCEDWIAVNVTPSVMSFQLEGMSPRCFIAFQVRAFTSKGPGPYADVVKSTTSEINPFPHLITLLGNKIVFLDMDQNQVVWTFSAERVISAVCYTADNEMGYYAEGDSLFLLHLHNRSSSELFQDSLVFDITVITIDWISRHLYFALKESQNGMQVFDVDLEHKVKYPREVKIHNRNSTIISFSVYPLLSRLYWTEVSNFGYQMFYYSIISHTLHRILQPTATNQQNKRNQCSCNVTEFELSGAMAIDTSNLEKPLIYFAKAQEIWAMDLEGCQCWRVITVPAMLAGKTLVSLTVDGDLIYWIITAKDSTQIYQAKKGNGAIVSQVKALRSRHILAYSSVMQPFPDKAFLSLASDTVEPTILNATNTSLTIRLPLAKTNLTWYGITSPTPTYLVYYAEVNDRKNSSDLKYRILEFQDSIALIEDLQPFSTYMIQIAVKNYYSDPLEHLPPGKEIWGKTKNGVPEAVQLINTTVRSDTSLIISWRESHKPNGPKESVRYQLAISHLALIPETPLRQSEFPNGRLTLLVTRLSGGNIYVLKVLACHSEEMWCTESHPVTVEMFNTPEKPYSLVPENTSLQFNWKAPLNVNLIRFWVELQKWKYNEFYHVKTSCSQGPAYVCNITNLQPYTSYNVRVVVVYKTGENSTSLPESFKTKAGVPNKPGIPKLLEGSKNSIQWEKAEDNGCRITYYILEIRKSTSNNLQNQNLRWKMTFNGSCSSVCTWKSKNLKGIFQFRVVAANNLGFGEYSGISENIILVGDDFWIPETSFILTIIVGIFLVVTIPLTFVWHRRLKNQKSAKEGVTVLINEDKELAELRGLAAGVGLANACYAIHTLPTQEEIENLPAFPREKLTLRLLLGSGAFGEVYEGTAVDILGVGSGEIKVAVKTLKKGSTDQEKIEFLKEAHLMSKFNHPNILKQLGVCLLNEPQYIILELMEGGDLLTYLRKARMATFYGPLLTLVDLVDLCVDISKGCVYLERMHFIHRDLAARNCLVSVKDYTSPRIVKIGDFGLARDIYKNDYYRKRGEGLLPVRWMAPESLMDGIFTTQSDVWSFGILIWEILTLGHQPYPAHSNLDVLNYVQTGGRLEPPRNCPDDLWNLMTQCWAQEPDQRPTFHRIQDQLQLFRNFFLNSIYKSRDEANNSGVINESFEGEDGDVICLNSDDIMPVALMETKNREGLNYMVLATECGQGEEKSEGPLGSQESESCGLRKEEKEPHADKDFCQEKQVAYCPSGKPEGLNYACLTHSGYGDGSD

| inhibition [2] | inhibition [3] | inhibition [4] | inhibition [5] | inhibition [6] | inhibition [7] | inhibition [8] | IC50 [9] | inhibition [10] | SMILES | inhibition [1] |
| --- | --- | --- | --- | --- | --- | --- | --- | --- | --- | --- |
| 17.9% | 0.99% | -2.57% | 61.6% | 27.9% | 7.04% | 10.4% | 500 nM | 3.59% | COCCNC(=O)c1ccc2c(c1)nc(-c1cnc(-c3ccc(Cl)cc3)[nH]1)n2CCOC | 0.89% |
| 28.3% | 3.68% | 12% | 100% | 63.8% | 17.7% | 85.2% | 7.9 nM | 76.3% | CS(=O)(=O)c1cccc(Nc2nccc(-c3sc(N4CCOCC4)nc3-c3cccc(NS(=O)(=O)c4c(F)cccc4F)c3)n2)c1 | 87% |
| 31.5% | -1.93% | -0.98% | 98.2% | 88.7% | 18% | -3.19% | 320 nM | 8.06% | CC(C)(C)c1cc(NC(=O)Nc2ccc(Oc3ccncc3)cc2)no1 | 99.8% |
